From PubChem BioAssay (NCI)
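Step 1: Grow cells in 96-well plates. Step 2: Expose to compound for 48 hours at 5 concentrations. Step 3: Interpolate endpoints linearly; if unreached, use highest concentration. At the GI50, growth is halved. TGI: total growth inhibition.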

Columns and labels:
Assay in all cases: growth of human tumour cells (NCI), 48 h
786-0 renal = test system: 786-0 renal
HCT-15 colon = test system: HCT-15 colon
MALME-3M melanoma = test system: MALME-3M melanoma
NCI-H522 lung = test system: NCI-H522 lung
OVCAR-3 ovarian = test system: OVCAR-3 ovarian
OVCAR-4 ovarian = test system: OVCAR-4 ovarian
OVCAR-5 ovarian = test system: OVCAR-5 ovarian
SF-295 CNS = test system: SF-295 CNS
SK-MEL-2 melanoma = test system: SK-MEL-2 melanoma
U251 CNS = test system: U251 CNS

| SMILES | TGI (786-0 renal) | TGI (HCT-15 colon) | TGI (MALME-3M melanoma) | TGI (NCI-H522 lung) | TGI (OVCAR-3 ovarian) | TGI (OVCAR-4 ovarian) | TGI (OVCAR-5 ovarian) | TGI (SF-295 CNS) | TGI (SK-MEL-2 melanoma) | TGI (U251 CNS) | GI50 (786-0 renal) | GI50 (HCT-15 colon) | GI50 (MALME-3M melanoma) | GI50 (NCI-H522 lung) | GI50 (OVCAR-3 ovarian) | GI50 (OVCAR-4 ovarian) | GI50 (OVCAR-5 ovarian) | GI50 (SF-295 CNS) | GI50 (SK-MEL-2 melanoma) | GI50 (U251 CNS) |
| --- | --- | --- | --- | --- | --- | --- | --- | --- | --- | --- | --- | --- | --- | --- | --- | --- | --- | --- | --- | --- |
| COc1ccc2cc(C(=O)c3ccccc3C(=O)O)ccc2c1 | > 100 µM | > 100 µM | > 100 µM | > 100 µM | > 100 µM | > 100 µM | > 100 µM | > 100 µM | > 100 µM | > 100 µM |  |  |  |  |  |  |  |  |  |  |
| COc1ccc(-c2cc(-c3ccc(Nc4nc(Nc5ccc(Cl)cc5)nc(Nc5ccc(Cl)cc5)n4)cc3)no2)cc1 | 25.5 µM | > 100 µM | 49 µM | 25.5 µM | 38.9 µM | > 100 µM | 73.5 µM | 39.5 µM | 57.5 µM | > 100 µM | 5.42 µM | 12.4 µM | 20.5 µM | 7.67 µM | 11.2 µM | 14.7 µM | 19.1 µM | 11.4 µM | 17.1 µM | 11.2 µM |
| Oc1c(Br)cc(Br)cc1CN(Cc1cc(Br)cc(Br)c1O)C1CCCCC1 | > 100 µM | > 100 µM | 59.8 µM | 36.5 µM | 53.8 µM | > 100 µM | > 100 µM | 72.7 µM | 45.4 µM | 74.9 µM |  |  |  |  |  |  |  |  |  |  |
| CC1(C)CC23C(=O)N(c4ccccc4)C(=Nc4ccccc4)NC2=CC(C#N)=C(C#N)C3O1 (stereo not drawn) | > 100 µM | > 100 µM | > 100 µM | > 100 µM | > 100 µM | > 100 µM | > 100 µM | > 100 µM | > 100 µM | > 100 µM |  |  |  |  |  |  |  |  |  |  |
| O=C1c2ccccc2C(=O)N1/N=C\c1ccc(Br)cc1 | > 100 µM | > 100 µM | > 100 µM | > 100 µM | > 100 µM | > 100 µM | > 100 µM | > 100 µM | > 100 µM | > 100 µM | > 100 µM | > 100 µM | > 100 µM |  | > 100 µM | > 100 µM | > 100 µM | > 100 µM | > 100 µM |  |
| O=c1oc2ccc(Cl)cc2c(=O)n1-c1ccc(Cl)cc1F | 4.8 µM | 6.69 µM | 1.55 µM | 3.22 µM | 13.8 µM | 78.9 µM | > 95 µM | 2.43 µM | 2.26 µM | > 31.6 µM | 1.76 µM | 0.791 µM | 0.313 µM | 0.331 µM | 0.355 µM | 0.377 µM | 3.83 µM | 0.856 µM | 0.37 µM | 0.566 µM |
| COc1cc(N2CCC(N3CCN(C)CC3)CC2)ccc1Nc1ncc(Cl)c(Nc2ccccc2P(C)(C)=O)n1 | 7.59 µM | > 40.4 µM | > 100 µM | 17.3 µM | 38.2 µM | > 47.6 µM | > 100 µM | > 100 µM | 30.6 µM | > 100 µM | 1.12 µM | 2.97 µM | 7.66 µM | 0.759 µM | 2.15 µM | 1.3 µM | 0.379 µM | 2.85 µM | 2.67 µM | 3.79 µM |
